Measured values published in patent publication US6432682B1, “Substances KF-1040 and process for producing of the same” (The Kitasato Institute, priority 2000, dated 2002).
In brackets after ≈: the same amount, converted by molar mass.

Legend:
[1] = biological target: diacylglycerol:acyltransferase; experiment: Inhibitory action to rat-originated diacylglycerol:acyltransferase (rat liver microsomal fraction); format: biochemical; conditions: 23° C., 15 minutes
Description: The activity of diacylglycerol:acyltransferase was determined by the modified method of Mayorek and Bar-Tana [J. Biol. Chem., 260, 6528-6532 (1985)].
Thus, a microsomal fraction prepared from rat liver was used as the enzyme source. To a 175 mM Tris-HCl buffer (pH 8.0) containing 8 mM of MgCl2, 1 mg/ml of bovine, serum albumin and 2.5 mM of diisopropyl fluorophosphate, there were added 0.75 mM of dioleoylglycerol and 30 μM of [1-^14C]-palmitoyl-CoA (0.02 μCi) and the total volume was adjusted to 200 μl, whereupon the enzymatic reaction mixture was incubated at 23° C. for 15 minutes. The total lipids were extracted with chloroform/methanol mixture and each lipid was separated by a TLC (with Kieselgel GF254 and a developer of petroleum ether/diethyl ether/acetic acid of 80/20/1), followed by determination of the radioactivity of the triacylglycerol fraction using RADIOSCANNER (of the firm AMBIS System Inc.) to determine the diacylglycerol:acyltransferase activity.

[2] = test system: triacylglycerol formation in Raji cell originated from human Burkitt lymphoma; experiment: Inhibitory action to formation of triacylglycerol in human-originated cells (Raji cell); format: cell-based; conditions: 0.5 h, [1-14C]-oleic acid, 37° C., 30 minutes, read-out: drug concentration corresponding to 50% inhibition of triacylglycerol formation
Description: The assessment of influence of the substances on the triacylglycerol formation was performed in accordance with the method of Tomoda et al [J. Biol. Chem., 266, 4214-4219 (1991)] using human-originated cells (Raji cell originated from human Burkitt lymphoma).
A Raji cell dispersion of 2.7×10^6 cells per milliliter containing 0.36 nM [1-^14C]-oleic acid (0.02 μCi) in the presence or absence of the; substance was filled up to a total volume 200 μl, whereupon the reaction was caused at 37° C. for 30 minutes. The total lipids were extracted with chloroform/methanol (2/1) mixture. The subsequent procedures were carried out in the same manner as in the above experiment (1) “inhibitive action to rat-originated diacylglycerol-acyltransferase”.
The calculation of the drug concentration corresponding to 50% inhibition of triacylglycerol formation gives the values of 10 μg/ml for the KF-1040 substance A and 10 μg/ml for the KF-1040 substance B.

[3] = biological target: T1, acid sphingomyelinase originated from human placenta (Homo sapiens, UniProt P17405); experiment: Influence on human placenta-originated acid sphingomyelinase; format: biochemical; conditions: human placenta enzyme (Sigma), pH 5.0, 37° C., 30 minutes; read-out: concentration corresponding to 50% inhibition of acid sphingomyelinase (converted)
T1 construct: an acid sphingomyelinase originated from human placenta (a product of the firm Sigma) was used as the enzyme source; purchased Sigma; host or cells: human placenta
T1 sequence (P17405 47-631): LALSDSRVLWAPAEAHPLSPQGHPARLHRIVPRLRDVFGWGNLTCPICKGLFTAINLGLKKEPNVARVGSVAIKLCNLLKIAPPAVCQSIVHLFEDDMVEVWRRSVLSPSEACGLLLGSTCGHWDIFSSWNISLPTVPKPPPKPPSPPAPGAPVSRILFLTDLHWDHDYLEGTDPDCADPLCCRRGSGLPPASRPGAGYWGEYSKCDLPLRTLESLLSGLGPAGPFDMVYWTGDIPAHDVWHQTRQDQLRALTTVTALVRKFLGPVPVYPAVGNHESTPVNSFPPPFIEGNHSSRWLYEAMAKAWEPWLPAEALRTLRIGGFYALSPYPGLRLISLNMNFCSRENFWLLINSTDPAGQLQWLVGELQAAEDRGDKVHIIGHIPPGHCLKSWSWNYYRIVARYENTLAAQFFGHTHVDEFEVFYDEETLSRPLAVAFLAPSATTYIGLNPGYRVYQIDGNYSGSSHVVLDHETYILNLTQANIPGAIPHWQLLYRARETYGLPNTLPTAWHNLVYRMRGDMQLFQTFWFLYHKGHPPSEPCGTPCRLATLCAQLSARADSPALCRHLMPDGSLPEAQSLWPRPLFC
Description: The assessment of influence of the substances on human placenta-originated acidic sphingomyelinase was performed in accordance with the method of Jones et al [Biochem. Journal, 195, 373-382 (1981)] with partial modification.
Thus, an acid sphingomyelinase originated from human placenta (a product of the firm Sigma) was used as the enzyme source and thereto were added 250 mM of sodium acetate buffer solution (pH 5.0), 0.1% of NP-40 (of the firm Sigma), 25 μM [N-methyl-^3H]-sphingomyelin (0.006 μCi) and various concentrations of the substance, and the mixture was filled up to a total volume of 50 μl. After the reaction at 37° C. for 30 minutes, 200 μl of chloroform/methanol mixture (1/2 volume ratio) was added to the reaction mixture to separate the reaction product [^3H]-phosphocholine from the starting material [^3H]-sphingomyelin. The supernatant layer was taken up into a 50 μl vial. The amount of [^3H]-phosphocholine was quantitatively determined by a liquid scintillation counter to estimate the acid sphingomyelinase activity.

Solubility in solvents = format: physicochemical; conditions: in methanol, benzene, chloroform and ethyl acetate
[4] = Acidic or alkaline nature; format: physicochemical

Structure (SMILES)	drug concentration corresponding to 50% inhibition of diacylglycerol:acyltransferase [1] [µg/mL]	IC50 [2] [µg/mL]	IC50 [3] [µM]	Solubility in solvents (Solubility in solvents)	Acidic or alkaline nature [4]
CCC(C)CC(C)CC(C)C(OC1OC(CO)C(O)C(O)C1O)C(C)C=C(C)C(O)C(C)C=C(C)C(O)C(C)C=C(C)C(=O)OCC(O)C(O)C(O)CO (stereo not shown) [KF-1040 substance A]	16	10 (≈ 12.9 µM)	61.8	solule in methanol, benzene, chloroform	neutral
CCC(C)CC(C)CC(C)C(OC1OC(COC(C)=O)C(O)C(O)C1O)C(C)C=C(C)C(O)C(C)C=C(C)C(O)C(C)C=C(C)C(=O)OCC(O)C(O)C(O)CO (stereo not shown) [KF-1040 substance B]	9.0	10 (≈ 12.2 µM)	29.3	soluble in methanol, benzene, chloroform	neutral
